Laboratory results as given in patent US9499537B2, “Antiviral pyrrolopyridine derivatives and method for preparing the same” (KOREA RESEARCH INSTITUTE OF CHEMICAL TECHNOLOGY, priority 2011, dated 2016).

System: MT-4 cells
Assay: Cytotoxicity test in MT-4 cells (MTT method)
Type: cell-based
Conditions: not given
Description: In order to look into the HIV-1 inhibition effects of the compound of the present invention, an in vitro test for HIV-1 inhibition effects was carried out as follows according to a known method (H. Tanaka et al., J. Med. Chem., 1991, 34, 349). MT-4 cells were used as host cells, and the degree of the compound of the present invention inhibiting the cytotoxicity of the virus-infected MT-4 cells was investigated.
First, MT-4 cells were diffused at a concentration of 1×10^4 cell/well to a culture medium, and HIV-1 was inoculated so that the concentration was 500 TCI50 (concentration at which 50% of the cell is infected)/well. Immediately after the inoculation, the cell dispersion was transferred in 100 μL each to a flat microtiter plate in which the sample of the compound of the present invention was placed. The sample was incubated for approximately for 4 to 5 days at […], and the virus suppression effect was determined using an MTT method. In addition, the cytotoxicity was also determined by measuring the survivability of the experimentally virus-infected cells using an MTT method. As a comparative compound, azidothymidine (AZT) and raltegravir were used.

Row | SMILES | CC60 (μM) ** : concentration at 50% cell damage with respect to MT-4 cells [µM]
1 | Cc1nc2c(c(C)c(C)n2C)c(-c2ccc3c(c2Cl)CCCO3)c1[C@H](OC(C)(C)C)C(=O)O [Example 72, (S)-2-(tert-butoxy)-2-((R)-4-(5-chlorochroman-6-yl)-1,2,3,6-tetramethyl-1H-pyrrolo[2,3-b]pyridin-5-yl)acetic acid] | 16.18
2 | Cc1nc2c(c(C)c(C)n2C)c(-c2cc(F)c3c(c2C)CCCO3)c1[C@H](OC(C)(C)C)C(=O)O [Example 74, (S)-2-(Tert-butoxy)-2-((R)-4-(8-fluoro-5-methylchroman-6-yl)-1,2,3,6-tetramethyl-1H-pyrrolo[2,3-b]pyridin-5-yl)acetic acid] | 23.92
3 | Cc1nc2c(c(C)c(C)n2C)c(-c2cc(F)c3c(c2C)CCCO3)c1[C@H](OC(C)(C)C)C(=O)O [Example 75, (S)-2-(tert-butoxy)-2-((S)-4-(8-fluoro-5-methylchroman-6-yl)-1,2,3,6-tetramethyl-1H-pyrrolo[2,3-b]pyridin-5-yl)acetic acid] | 37.22

Same assay, conditions: human

Row | SMILES | CC60 (μM) ** : concentration at 50% cell damage with respect to MT-4 cells [µM]
4 | Cc1nc2c(c(C)c(C)n2Cc2cc[nH]n2)c(-c2ccc(Cl)cc2)c1[C@H](OC(C)(C)C)C(=O)O [Example 45, (S)-2-(1-((1H-pyrazol-3-yl)methyl)-4-(4-chlorophenyl)-2,3,6-trimethyl-1H-pyrrolo[2,3-b]pyridin-5-yl)-2-(tert-butoxy)acetic acid] | 19.33
5 | Cc1nc2c(c(C)c(C)n2Cc2cn[nH]c2)c(-c2ccc(Cl)cc2)c1[C@H](OC(C)(C)C)C(=O)O [Example 46, (S)-2-(1-((1H-Pyrazol-4-yl)methyl)-4-(4-chlorophenyl)-2,3,6-trimethyl-1H-pyrrolo[2,3-b]pyridin-5-yl)-2-(tert-butoxy)acetic acid] | 20.89
6 | Cc1nc2c(c(C)c(C)n2CCCC#N)c(-c2ccc(Cl)cc2)c1[C@H](OC(C)(C)C)C(=O)O [Example 60, (S)-2-(Tert-butoxy)-2-(4-(4-chlorophenyl)-1-(3-cyanopropyl)-2,3,6-trimethyl-1H-pyrrolo[2,3-b]pyridin-5-yl)acetic acid] | 18.23
7 | Cc1nc2c(c(C)c(C)n2Cc2cccc(C#N)c2)c(-c2ccc(Cl)cc2)c1[C@H](OC(C)(C)C)C(=O)O [Example 61, (S)-2-(Tert-butoxy)-2-(4-(4-chlorophenyl)-1-(3-cyanobenzyl)-2,3,6-trimethyl-1H-pyrrolo[2,3-b]pyridin-5-yl)acetic acid] | 9.43
8 | Cc1nc2c(c(C)c(C)n2Cc2ccoc2)c(-c2ccc(Cl)cc2)c1[C@H](OC(C)(C)C)C(=O)O [Example 62, (S)-2-(Tert-butoxy)-2-(4-(4-chlorophenyl)-1-(furan-3-ylmethyl)-2,3,6-trimethyl-1H-pyrrolo[2,3-b]pyridin-5-yl)acetic acid] | 15.34
9 | Cc1nc2c(c(C)c(C)n2Cc2cncs2)c(-c2ccc(Cl)cc2)c1[C@H](OC(C)(C)C)C(=O)O [Example 63, (S)-2-(Tert-butoxy)-2-(4-(4-chlorophenyl)-2,3,6-trimethyl-1-(thiazol-5-ylmethyl)-1H-pyrrolo[2,3-b]pyridin-5-yl)acetic acid] | 38.3
10 | Cc1nc2c(c(C)c(C)n2Cc2nccs2)c(-c2ccc(Cl)cc2)c1[C@H](OC(C)(C)C)C(=O)O [Example 64, (S)-2-(Tert-butoxy)-2-(4-(4-chlorophenyl)-2,3,6-trimethyl-1-(thiazol-2-ylmethyl)-1H-pyrrolo[2,3-b]pyridin-5-yl)acetic acid] | 48.57
11 | Cc1nc2c(c(C)c(C)n2CCN(C)C)c(-c2ccc(Cl)cc2)c1[C@H](OC(C)(C)C)C(=O)O [Example 65, (S)-2-(Tert-butoxy)-2-(4-(4-chlorophenyl)-1-(2-dimethylaminoethyl)-2,3,6-trimethyl-1H-pyrrolo[2,3-b]pyridin-5-yl)acetic acid] | 70.86
12 | Cc1nc2c(c(C)c(C)n2Cc2ccnc(F)c2)c(-c2ccc(Cl)cc2)c1[C@H](OC(C)(C)C)C(=O)O [Example 66, (S)-2-(Tert-butoxy)-2-(4-(4-chlorophenyl)-1-((2-fluoropyridin-4-yl)methyl)-2,3,6-trimethyl-1H-pyrrolo[2,3-b]pyridin-5-yl)acetic acid] | 14.55
13 | Cc1nc2c(c(C)c(C)n2Cc2ccc(F)nc2)c(-c2ccc(Cl)cc2)c1[C@H](OC(C)(C)C)C(=O)O [Example 67, (S)-2-(Tert-butoxy)-2-(4-(4-chlorophenyl)-1-((6-fluoropyridin-3-yl)methyl)-2,3,6-trimethyl-1H-pyrrolo[2,3-b]pyridin-5-yl)acetic acid] | 13.65
14 | Cc1nc2c(c(C)c(C)n2Cc2cccnc2F)c(-c2ccc(Cl)cc2)c1[C@H](OC(C)(C)C)C(=O)O [Example 68, (S)-2-(Tert-butoxy)-2-(4-(4-chlorophenyl)-1-((2-fluoropyridin-3-yl)methyl)-2,3,6-trimethyl-1H-pyrrolo[2,3-b]pyridin-5-yl)acetic acid] | 17.14
15 | Cc1nc2c(c(C)c(C)n2CC2CC2(F)F)c(-c2ccc(Cl)cc2)c1[C@H](OC(C)(C)C)C(=O)O (stereo partly drawn) [Example 69, (S)-2-(Tert-butoxy)-2-(4-(4-chlorophenyl)-1-((2,2-difluorocyclopropyl)methyl)-2,3,6-trimethyl-1H-pyrrolo[2,3-b]pyridin-5-yl)acetic acid] | 17.55
16 | Cc1nc2c(c(C)c(C)n2CCN2CCCC2=O)c(-c2ccc(Cl)cc2)c1[C@H](OC(C)(C)C)C(=O)O [Example 70, (S)-2-(Tert-butoxy)-2-(4-(4-chlorophenyl)-2,3,6-trimethyl-1-(2-(2-oxopyrrolidin-1-yl)ethyl)-1H-pyrrolo[2,3-b]pyridin-5-yl)acetic acid] | 49.2
17 | Cc1nc2c(c(C)c(C)n2CCN2CCCC2)c(-c2ccc(Cl)cc2)c1[C@H](OC(C)(C)C)C(=O)O [Example 71] | 73.54
18 | Cc1nc2c(c(C)c(C)n2C)c(-c2ccc3c(c2Cl)CCCO3)c1[C@H](OC(C)(C)C)C(=O)O [Example 73, (S)-2-(tert-butoxy)-2-((S)-4-(5-chlorochroman-6-yl)-1,2,3,6-tetramethyl-1H-pyrrolo[2,3-b]pyridin-5-yl)acetic acid] | 25.1
19 | Cc1nc2c(c(C)c(C)n2CC2CC2)c(-c2cc(F)c3c(c2C)CCCO3)c1[C@H](OC(C)(C)C)C(=O)O [Example 76, (S)-2-(Tert-butoxy)-2-((R)-1-(cyclopropylmethyl)-4-((R)-8-fluoro-5-methylchroman-6-yl)-2,3,6-trimethyl-1H-pyrrolo[2,3-b]pyridin-5-yl)acetic acid] | 13.94
20 | Cc1nc2c(c(C)c(C)n2Cc2cnccn2)c(-c2ccc(Cl)cc2)c1[C@H](OC(C)(C)C)C(=O)O [Example 77, (S)-2-(Tert-butoxy)-2-(4-(4-chlorophenyl)-2,3,6-trimethyl-1-(pyrazin-2-ylmethyl)-1H-pyrrolo[2,3-b]pyridin-5-yl)acetic acid] | 38.86
21 | COCCn1c(C)c(C)c2c(-c3ccc(Cl)cc3)c([C@H](OC(C)(C)C)C(=O)O)c(C)nc21 [Example 78, (S)-2-(tert-butoxy)-2-(4-(4-chlorophenyl)-1-(2-methoxyethyl)-2,3,6-trimethyl-1H-pyrrolo[2,3-b]pyridin-5-yl)acetic acid] | 18.36
22 | Cc1nc2c(c(C)c(C)n2Cc2ccn(C)n2)c(-c2ccc(Cl)cc2)c1[C@H](OC(C)(C)C)C(=O)O [Example 79, (S)-2-(tert-butoxy)-2-(4-(4-chlorophenyl)-2,3,6-trimethyl-1-((1-methyl-1H-pyrazol-3-yl)methyl)-1H-pyrrolo[2,3-b]pyridin-5-yl)acetic acid] | 25.09

System: not given
Assay: not given
Conditions: not given

Row | SMILES | melting point [°C]
23 | Cc1nc2c(c(C)c(C)n2Cc2cc[nH]n2)c(-c2ccc(Cl)cc2)c1[C@H](OC(C)(C)C)C(=O)O [Example 45, (S)-2-(1-((1H-pyrazol-3-yl)methyl)-4-(4-chlorophenyl)-2,3,6-trimethyl-1H-pyrrolo[2,3-b]pyridin-5-yl)-2-(tert-butoxy)acetic acid] | 140
24 | Cc1nc2c(c(C)c(C)n2Cc2cn[nH]c2)c(-c2ccc(Cl)cc2)c1[C@H](OC(C)(C)C)C(=O)O [Example 46, (S)-2-(1-((1H-Pyrazol-4-yl)methyl)-4-(4-chlorophenyl)-2,3,6-trimethyl-1H-pyrrolo[2,3-b]pyridin-5-yl)-2-(tert-butoxy)acetic acid] | > 230
